In patent publication US9981909B2 (Janssen Pharmaceutica NV, priority 2008, dated 2018) one finds Ki data, which are given here for 27 compounds.

For orientation: Ki means a dissociation constant, usually derived from enzyme kinetics or from competition with a known ligand.

In one assay the target is rat 5-HT7 receptor (Rattus norvegicus (Rat), UniProt P32305). Briefly: r5-HT7 binding assay, competitive radioligand binding with [3H]5-CT. The gist of the method: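 Membranes from HEK-293 cells recombinantly expressing rat 5-HT7 were used for competitive radioligand binding with [3H]5-CT, with radioactivity read-out and Ki values derived. In the functional cAMP immunoassay, stably transfected HEK-293 cells were pre-incubated with compound for 10 minutes, challenged with 100 nM 5-CT for 20 minutes, then lysed.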

Another assay addresses human SERT (Homo sapiens (Human), UniProt P31645). In words: human SERT binding assay with [3H]-citalopram on HEK-293 membranes. The note with it: read-out: hSERT binding Ki. On the procedure:
Receptor binding was performed using membrane fractions prepared from the HEK-293 cell line recombinantly expressing rat 5-HT7 receptors (NCBI accession NM_022938). Compound affinity for the rat 5-HT7 receptor subtype was evaluated by competitive radioligand binding assays using 5-carboxamido[^3H]tryptamine ([^3H]5-CT) (Amersham Biosciences, cat. 90000403) detection. HitHunter™ cAMP assays are in-vitro based competitive immunoassays. The assay was performed on the HEK-293 cell line stably transfected with r5-HT7 receptor. Cells were pre-incubated with test compounds for 10 minutes. For antagonist testing, the cells were then challenged with 100 nM 5-CT for 20 minutes. Cells were then lysed and cAMP measured according to manufacturers protocol (Amersham, cat. NET791250UC) or [^3H]mesulergine (Amersham, cat. TRK1041). The assay was performed on membranes prepared from HEK-293 cells stably transfected with h5-HT6. Following centrifugation, membranes were resuspended and incubated for 60 min at room temperature with 1.7 nM [^3H]LSD in the presence of increasing concentration of test compounds. Nonspecific binding was defined in the presence of 10 μM clozapine (Tocris, cat. TRK1068). Homogenized HEK-293 membranes expressing the human SERT were incubated in 50 mM Tris-HCl (pH 7.5), 120 mM NaCl, 5 mM KCl with [^3H]-citalopram (3 nM) with or without test compounds. Nonspecific binding was determined in the presence of 10 μM fluoxetine. Radioactivity readouts and Ki values were performed as previously described for r5-HT7. […] Compounds were assayed in their free form or as salts, as indicated in the Examples section above.

The mark [1] stands for this setting: rat 5-HT7 receptor, HEK-293 membranes.

Counter-ions that a name gives are not always drawn.

rat 5-HT7 receptor, sequence (P32305 1-435): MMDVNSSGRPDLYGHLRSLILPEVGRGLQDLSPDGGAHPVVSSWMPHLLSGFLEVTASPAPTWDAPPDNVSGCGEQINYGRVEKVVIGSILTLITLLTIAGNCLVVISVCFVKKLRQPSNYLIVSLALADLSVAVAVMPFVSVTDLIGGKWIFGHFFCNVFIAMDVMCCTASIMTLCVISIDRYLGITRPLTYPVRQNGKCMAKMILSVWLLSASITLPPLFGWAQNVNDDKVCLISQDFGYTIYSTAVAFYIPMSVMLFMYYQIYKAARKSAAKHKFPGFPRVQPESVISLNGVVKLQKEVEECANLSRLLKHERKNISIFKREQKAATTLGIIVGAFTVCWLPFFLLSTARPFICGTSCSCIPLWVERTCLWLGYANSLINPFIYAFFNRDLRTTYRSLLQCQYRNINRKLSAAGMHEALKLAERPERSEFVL
human SERT, sequence (P31645 whole entry): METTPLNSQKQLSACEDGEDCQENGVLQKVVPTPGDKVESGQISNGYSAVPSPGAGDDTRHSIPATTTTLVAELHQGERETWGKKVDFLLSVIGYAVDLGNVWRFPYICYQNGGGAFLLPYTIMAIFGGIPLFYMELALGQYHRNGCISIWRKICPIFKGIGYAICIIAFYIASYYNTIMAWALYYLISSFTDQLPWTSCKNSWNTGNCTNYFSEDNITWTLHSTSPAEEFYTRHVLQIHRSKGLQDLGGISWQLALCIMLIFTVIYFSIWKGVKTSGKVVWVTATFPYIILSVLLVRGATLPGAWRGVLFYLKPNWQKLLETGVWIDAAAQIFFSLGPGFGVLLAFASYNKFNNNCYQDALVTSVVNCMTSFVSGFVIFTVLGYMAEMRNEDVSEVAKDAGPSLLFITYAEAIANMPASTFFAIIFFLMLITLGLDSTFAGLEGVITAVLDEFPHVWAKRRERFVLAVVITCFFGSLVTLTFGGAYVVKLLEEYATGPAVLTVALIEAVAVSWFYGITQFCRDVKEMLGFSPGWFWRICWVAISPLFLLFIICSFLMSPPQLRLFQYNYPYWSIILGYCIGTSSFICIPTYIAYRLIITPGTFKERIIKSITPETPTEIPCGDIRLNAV

For the compound `CC(Oc1ccc(Cl)cc1OC1CN(Cc2ccccc2)C1)c1cccc(C(F)(F)F)c1` (racemic) [Example 108, (±)-1-Benzyl-3-[5-chloro-2-[1-(3-trifluoromethyl-phenyl)-ethoxy]-phenoxy]-azetidine], the Ki at rat 5-HT7 receptor (setting [1]) amounted to 36 nM; at human SERT, 5000 nM.

For the compound `CC(Oc1ccc(Cl)cc1OC1CN(C)C1)c1cccc(C(F)(F)F)c1` (racemic) [Example 109, (±)-3-[5-Chloro-2-[1-(3-trifluoromethyl-phenyl)-ethoxy]-phenoxy]-1-methyl-azetidine], the figures for the Ki at rat 5-HT7 receptor (setting [1]) and on human SERT were 5 nM and 2900 nM, respectively.

As to `CC(Oc1ccc(Br)cc1OC1CNC1)c1cccc(OC(F)(F)F)c1` (racemic) [Example 110, (±)-3-[5-Bromo-2-[1-(3-trifluoromethoxy-phenyl)-ethoxy]-phenoxy]-azetidine], the results for the inhibition constant (Ki) on rat 5-HT7 receptor (setting [1]) and at human SERT were 90 nM and 554 nM, respectively.

For `CC(Oc1ccc(Cl)cc1OC1CNC1)c1cccc(F)c1` (racemic) [Example 115, (±)-3-[5-Chloro-2-[1-(3-fluoro-phenyl)-ethoxy]-phenoxy]-azetidine], the values for the inhibition constant Ki on rat 5-HT7 receptor (setting [1]) and on human SERT were 33 nM and 202 nM, respectively.

For the compound `CC(Oc1ccc(Cl)cc1OC1CNC1)c1ccc(F)c(C(F)(F)F)c1` (racemic) [Example 117, (±)-3-[5-Chloro-2-[1-(4-fluoro-3-trifluoromethyl-phenyl)-ethoxy]-phenoxy]-azetidine], the inhibitory constant (Ki) on rat 5-HT7 receptor (setting [1]) was 41 nM; at human SERT it was 71 nM.

Regarding `CC(Oc1ccc(Cl)cc1OC1CNC1)c1ccccc1F` (racemic) [Example 121, (±)-3-[5-Chloro-2-[1-(2-fluoro-phenyl)-ethoxy]-phenoxy]-azetidine], the inhibition constant Ki at rat 5-HT7 receptor (setting [1]) was 33 nM; on human SERT it was 164 nM.

Consider `CC(Oc1ccc(Cl)cc1OC1CNC1)c1ccc(Cl)cc1` (racemic) [Example 123, (±)-3-[5-Chloro-2-[1-(4-chloro-phenyl)-ethoxy]-phenoxy]-azetidine], for which the inhibition constant Ki on rat 5-HT7 receptor (setting [1]) was 42 nM; at human SERT, 25 nM.

On to `CC(Oc1ccc(Cl)cc1OC1CNC1)c1ccc(F)cc1` (racemic) [Example 124, (±)-3-[5-Chloro-2-[1-(4-fluoro-phenyl)-ethoxy]-phenoxy]-azetidine], for which the Ki at rat 5-HT7 receptor (setting [1]) turned out to be 43 nM; at human SERT, 20 nM.

For `CC(Oc1ccc(Cl)cc1OC1CCNCC1)c1cccc(Cl)c1` (racemic) [Example 136, (±)-4-[5-Chloro-2-[1-(3-chloro-phenyl)-ethoxy]-phenoxy]-piperidine], the Ki on rat 5-HT7 receptor (setting [1]) was found to be 29 nM; at human SERT, 98 nM.

Regarding `CC(Oc1ccc(Cl)cc1OC1CNC1)c1ccccc1` (racemic) [Example 145, (±)-3-[5-Chloro-2-(1-phenyl-ethoxy)-phenoxy]-azetidine], the Ki at rat 5-HT7 receptor (setting [1]) stood at 40 nM; on human SERT, 773 nM.

Turning to `Cc1ccc2c(c1)CCC2Oc1ccc(Br)cc1OC1CNC1` (racemic) [Example 155, (±)-3-[5-Bromo-2-(5-methyl-indan-1-yloxy)-phenoxy]-azetidine], the results for the Ki on rat 5-HT7 receptor (setting [1]) and on human SERT were 19 nM and 45 nM, respectively.

`C[C@@H]1[C@@H](Oc2ccc(Cl)cc2OC2CNC2)CN1Cc1ccccc1` (racemic) [Example 223, (±)-3-[5-Chloro-2-(trans-1-benzyl-2-methyl-azetidin-3-ol)-phenoxy]-azetidine]: the Ki came out at 145 nM at rat 5-HT7 receptor (rat 5-HT7, HEK-293 membranes) and 9000 nM on human SERT.

Consider `C[C@@H]1[C@H](Oc2cc(Br)ccc2OCc2cccc(F)c2)CN1Cc1ccccc1` (relative stereo) [Example 220, cis-1-Benzyl-3-[5-bromo-2-(3-fluoro-benzyloxy)-phenoxy]-2-methyl-azetidine], for which the Ki came out at 493 nM at rat 5-HT7 receptor (rat 5-HT7, HEK-293 membranes) and 789 nM on human SERT.

Turning to `C[C@H]1[C@H](Oc2cc(Br)ccc2OCc2cccc(F)c2)CN1Cc1ccccc1` (relative stereo) [Example 221, trans-1-Benzyl-3-[5-bromo-2-(3-fluoro-benzyloxy)-phenoxy]-2-methyl-azetidine], the Ki at rat 5-HT7 receptor (rat 5-HT7, HEK-293 membranes) worked out at 147 nM; at human SERT, 5000 nM.

For the compound `Clc1cccc(COc2cc(Br)ccc2OC2CNC2)c1` [Example 22, 3-[4-Bromo-2-(3-chloro-benzyloxy)-phenoxy]-azetidine], the Ki at rat 5-HT7 receptor (setting [1]) is 125 nM; at human SERT, 28 nM.

Regarding `CSc1cccc(COc2ccc(Cl)cc2OC2CNC2)c1` [Example 26, 3-[5-Chloro-2-(3-methylsulfanyl-benzyloxy)-phenoxy]-azetidine], the Ki was 25 nM at rat 5-HT7 receptor (setting [1]) and 13 nM at human SERT.

Turning to `CS(=O)(=O)c1cccc(COc2ccc(Cl)cc2OC2CNC2)c1` [Example 27, 3-[5-Chloro-2-(3-methanesulfonyl-benzyloxy)-phenoxy]-azetidine], the figures for the inhibition constant (Ki) at rat 5-HT7 receptor (setting [1]) and on human SERT were 229 nM and 1680 nM, respectively.

Regarding `Clc1ccc(OCc2csc(-c3cccs3)n2)c(OC2CNC2)c1` [Example 28, 4-[2-(Azetidin-3-yloxy)-4-chloro-phenoxymethyl]-2-thiophen-2-yl-thiazole], the results for the Ki on rat 5-HT7 receptor (setting [1]) and on human SERT were 49 nM and 683 nM, respectively.

In the case of `Cc1nc(-c2cccc(COc3ccc(Cl)cc3OC3CNC3)c2)no1` [Example 31, 3-[3-[2-(Azetidin-3-yloxy)-4-chloro-phenoxymethyl]-phenyl]-5-methyl-[1,2,4]oxadiazole hydrochloride], the results for the inhibition constant Ki on rat 5-HT7 receptor (setting [1]) and on human SERT were 100 nM and 90 nM, respectively.

With `FC(F)(F)c1ccccc1COc1ccc(Cl)cc1OC1CNC1` [Example 32, 3-[5-Chloro-2-(2-trifluoromethyl-benzyloxy)-phenoxy]-azetidine], the Ki was determined as 53 nM on rat 5-HT7 receptor (setting [1]) and 29 nM on human SERT.

On to `FC(F)(F)Oc1ccc(COc2ccc(Cl)cc2OC2CNC2)cc1` [Example 42, 3-[5-Chloro-2-(4-trifluoromethoxy-benzyloxy)-phenoxy]-azetidine], for which the values for the inhibition constant Ki at rat 5-HT7 receptor (setting [1]) and on human SERT were 35 nM and 578 nM, respectively.

In the case of `FC(F)(F)c1ccc(COc2ccc(Cl)cc2OC2CNC2)cc1` [Example 43, 3-[5-Chloro-2-(4-trifluoromethyl-benzyloxy)-phenoxy]-azetidine], the inhibition constant Ki on rat 5-HT7 receptor (setting [1]) is 15 nM; at human SERT, 86 nM.

Take `FC(F)(F)c1ccc(COc2ccc(Cl)cc2OC2CNC2)c(C(F)(F)F)c1` [Example 45, 3-[2-(2,4-Bis-trifluoromethyl-benzyloxy)-5-chloro-phenoxy]-azetidine]: the Ki at rat 5-HT7 receptor (setting [1]) was found to be 3160 nM; on human SERT, 197 nM.

On to `Fc1ccc(COc2ccc(Cl)cc2OC2CNC2)cc1C(F)(F)F` [Example 47, 3-[5-Chloro-2-(4-fluoro-3-trifluoromethyl-benzyloxy)-phenoxy]-azetidine], for which the results for the Ki at rat 5-HT7 receptor (setting [1]) and on human SERT were 11 nM and 21 nM, respectively.

For the compound `Clc1ccc(OCc2ccccn2)c(OC2CNC2)c1` [Example 51, 2-[2-(Azetidin-3-yloxy)-4-chloro-phenoxymethyl]-pyridine], the Ki on rat 5-HT7 receptor (setting [1]) was found to be 387 nM; at human SERT, 86 nM.

Regarding `Clc1ccc(OCc2cccnc2)c(OC2CNC2)c1` [Example 52, 3-[2-(Azetidin-3-yloxy)-4-chloro-phenoxymethyl]-pyridine], the inhibition constant (Ki) on rat 5-HT7 receptor (setting [1]) amounted to 110 nM; on human SERT it was 89 nM.

`O=C(c1cccc(Cl)c1)c1ccc(Cl)cc1OC1CNC1` [Example 298, [2-(Azetidin-3-yloxy)-4-chloro-phenyl]-(3-chloro-phenyl)-methanone] gave an inhibitory constant (Ki) on rat 5-HT7 receptor (rat 5-HT7, HEK-293 membranes) of 102 nM.
